Source: publication PMC4657531 (EXCLI Journal, 2013)

System: β-glucosidase
Test: DNS reducing sugar assay, Lineweaver-Burk plot
Assay type: biochemical, Penicillium simplicissimum
Conditions: citrate buffer pH 4.8, 50 °C, 30 min; salicin 5-50 mg/ml

For `OCc1ccccc1O[C@@H]1O[C@H](CO)[C@@H](O)[C@H](O)[C@H]1O` [salicin], the Km was 14.881 mg/mL.
